Test results taken from patent US12552824B2, “C-mannoside compounds useful for the treatment of urinary tract infections” (GLAXOSMITHKLINE INTELLECTUAL PROPERTY DEVELOPMENT LIMITED, priority 2018, dated 2026).

target: T1, FimH (Escherichia coli, UniProt Q1R2J4); assay type: cell-based; conditions: concentration reducing bacterial agglutination of guinea pig red blood cells by greater than 90%; UTI89 bacteria
T1 construct: endogenous in cells; host or cells: E. coli UTI89 whole bacteria, agglutinating guinea pig red blood cells
Method: Hemagglutination Inhibition Assay (HAI)
The hemagglutination inhibition (HAI) assay was performed with UTI89 bacteria and guinea pig red blood cells, as previously described (S. J. Hultgren, W. R. Schwan, A. J. Schaeffer, J. L. Duncan Infect. Immun. 1986, 54, 613-620 and Jarvis, C.; Han, Z.; Kalas, V.; Klein, R.; Pinkner, J. S.; Ford, B.; Binkley, J.; Cusumano, C. K.; Cusumano, Z.; Mydock-McGrane, L.; Hultgren, S. J.; Janetka, J. W., ChemMedChem 2016, 11, 367-373).
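Further: concentration in nM.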

Row | SMILES | HAI titer EC > 90
1 | Cc1cc(-c2cc(F)c(C(C)O)c(F)c2)ccc1C(O)C1OC(CO)C(O)C(O)C1O (mixture of isomers) [Example 95] | “++++” (<50 “++++”)
2 | Cc1cc(-c2cc(F)c(C(C)O)c(F)c2)ccc1[C@@H](O)[C@H]1O[C@H](CO)[C@@H](O)[C@H](O)[C@@H]1O (single isomer, unassigned) [Example 107] | “++++” (<50 “++++”)
3 | Cc1cc(-c2cc(F)c(C(C)O)c(F)c2)ccc1[C@@H](O)[C@H]1O[C@H](CO)[C@@H](O)[C@H](O)[C@@H]1O (single isomer, unassigned) [Example 108] | “++++” (<50 “++++”)
4 | Cc1cc(-c2cc(Cl)ccc2OC(C)C)ccc1[C@@H](O)[C@H]1O[C@H](CO)[C@@H](O)[C@H](O)[C@@H]1O [Example 10] | “++++” (<50 “++++”)
5 | Cc1cc(-c2cc(C)c(Cl)c(C)c2)ccc1[C@@H](O)[C@H]1O[C@H](CO)[C@@H](O)[C@H](O)[C@@H]1O [Example 12] | “+++” (50-200 “+++”)
6 | Cc1cc(-c2ccc([C@@H](O)[C@H]3O[C@H](CO)[C@@H](O)[C@H](O)[C@@H]3O)c(C)c2)cc(C(C)(C)C)c1 [Example 14] | “+++” (50-200 “+++”)
7 | Cc1cc(-c2cc(F)ccc2F)ccc1[C@@H](O)[C@H]1O[C@H](CO)[C@@H](O)[C@H](O)[C@@H]1O [Example 17] | “+++” (50-200 “+++”)
8 | Cc1cc(-c2cccc(F)c2F)ccc1[C@@H](O)[C@H]1O[C@H](CO)[C@@H](O)[C@H](O)[C@@H]1O [Example 18] | “+++” (50-200 “+++”)
9 | Cc1cc(-c2cc(Cl)c(Cl)cc2O)ccc1[C@@H](O)[C@H]1O[C@H](CO)[C@@H](O)[C@H](O)[C@@H]1O [Example 19] | “++++” (<50 “++++”)
10 | COc1cc(Cl)c(Cl)cc1-c1ccc([C@@H](O)[C@H]2O[C@H](CO)[C@@H](O)[C@H](O)[C@@H]2O)c(C)c1 [Example 20] | “++++” (<50 “++++”)
11 | Cc1cc(-c2cc(F)cc(Cl)c2)ccc1[C@@H](O)[C@H]1O[C@H](CO)[C@@H](O)[C@H](O)[C@@H]1O [Example 22] | “++++” (<50 “++++”)
12 | Cc1cc(-c2ccc(F)c(F)c2)ccc1[C@@H](O)[C@H]1O[C@H](CO)[C@@H](O)[C@H](O)[C@@H]1O [Example 23] | “+++” (50-200 “+++”)
13 | Cc1cc(-c2ccc(F)c(C(F)(F)F)c2)ccc1[C@@H](O)[C@H]1O[C@H](CO)[C@@H](O)[C@H](O)[C@@H]1O [Example 25] | “++++” (<50 “++++”)
14 | Cc1cc(-c2cc(Cl)cc(C(F)(F)F)c2)ccc1[C@@H](O)[C@H]1O[C@H](CO)[C@@H](O)[C@H](O)[C@@H]1O [Example 26] | “++++” (<50 “++++”)
15 | COc1cc(-c2ccc([C@@H](O)[C@H]3O[C@H](CO)[C@@H](O)[C@H](O)[C@@H]3O)c(C)c2)ccc1F [Example 27] | “+++” (50-200 “+++”)
16 | Cc1cc(-c2ccc(OC(F)(F)F)c(F)c2)ccc1[C@@H](O)[C@H]1O[C@H](CO)[C@@H](O)[C@H](O)[C@@H]1O [Example 28] | “+” (>1000 “+”)
17 | OC[C@H]1O[C@H]([C@H](O)c2ccc(-c3cc(F)cc(F)c3)cc2Cl)[C@@H](O)[C@@H](O)[C@@H]1O [Example 29] | “+++” (50-200 “+++”)
18 | Cc1cc(-c2ccc(Cl)c(C(F)(F)F)c2)ccc1[C@@H](O)[C@H]1O[C@H](CO)[C@@H](O)[C@H](O)[C@@H]1O [Example 30] | “++++” (<50 “++++”)
19 | Cc1cc(-c2ccc(F)c(OC(F)(F)F)c2)ccc1[C@@H](O)[C@H]1O[C@H](CO)[C@@H](O)[C@H](O)[C@@H]1O [Example 31] | “+++” (50-200 “+++”)
20 | COc1cc(OC)cc(-c2ccc([C@@H](O)[C@H]3O[C@H](CO)[C@@H](O)[C@H](O)[C@@H]3O)c(C)c2)c1 [Example 33] | “++++” (<50 “++++”)

Row | SMILES | HAI titer EC > 90
21 | COc1cc(-c2ccc([C@@H](O)[C@H]3O[C@H](CO)[C@@H](O)[C@H](O)[C@@H]3O)c(C)c2)cc(F)c1F [Example 34] | “++++” (<50 “++++”)
22 | COc1c(F)cc(-c2ccc([C@@H](O)[C@H]3O[C@H](CO)[C@@H](O)[C@H](O)[C@@H]3O)c(C)c2)cc1F [Example 35] | “++++” (<50 “++++”)
23 | Cc1cc(-c2cc(F)cc(OC(F)(F)F)c2)ccc1[C@@H](O)[C@H]1O[C@H](CO)[C@@H](O)[C@H](O)[C@@H]1O [Example 36] | “++++” (<50 “++++”)
24 | Cc1cc(-c2cc(F)cc(F)c2)cc(F)c1[C@@H](O)[C@H]1O[C@H](CO)[C@@H](O)[C@H](O)[C@@H]1O [Example 37] | “++++” (<50 “++++”)
25 | Cc1cc(-c2ccc(C3CC3)c(F)c2)ccc1[C@@H](O)[C@H]1O[C@H](CO)[C@@H](O)[C@H](O)[C@@H]1O [Example 38] | “+++” (50-200 “+++”)
26 | COc1cc(-c2ccc([C@@H](O)[C@H]3O[C@H](CO)[C@@H](O)[C@H](O)[C@@H]3O)c(C)c2)cc(OC)c1F [Example 39] | “++++” (<50 “++++”)
27 | Cc1cc(-c2ccc([C@@H](O)[C@H]3O[C@H](CO)[C@@H](O)[C@H](O)[C@@H]3O)c(C)c2)c(F)cc1Cl [Example 40] | “+++” (50-200 “+++”)
28 | Cc1cc(-c2ccc(C(F)(F)F)c(Cl)c2)ccc1[C@@H](O)[C@H]1O[C@H](CO)[C@@H](O)[C@H](O)[C@@H]1O [Example 41] | “++++” (<50 “++++”)
29 | Cc1cc(-c2ccc(C(F)(F)F)cc2F)ccc1[C@@H](O)[C@H]1O[C@H](CO)[C@@H](O)[C@H](O)[C@@H]1O [Example 42] | “+++” (50-200 “+++”)
30 | Cc1cc(-c2cc(OC(F)(F)F)ccc2F)ccc1[C@@H](O)[C@H]1O[C@H](CO)[C@@H](O)[C@H](O)[C@@H]1O [Example 43] | “+++” (50-200 “+++”)
31 | Cc1cc(-c2cc(Cl)ccc2F)ccc1[C@@H](O)[C@H]1O[C@H](CO)[C@@H](O)[C@H](O)[C@@H]1O [Example 44] | “+++” (50-200 “+++”)
32 | Cc1cc(F)c(-c2ccc([C@@H](O)[C@H]3O[C@H](CO)[C@@H](O)[C@H](O)[C@@H]3O)c(C)c2)cc1F [Example 45] | “++++” (<50 “++++”)
33 | Cc1cc(-c2cc(C(F)(F)F)ccc2F)ccc1[C@@H](O)[C@H]1O[C@H](CO)[C@@H](O)[C@H](O)[C@@H]1O [Example 46] | “+++” (50-200 “+++”)
34 | Cc1cc(-c2cc(F)c(Cl)cc2F)ccc1[C@@H](O)[C@H]1O[C@H](CO)[C@@H](O)[C@H](O)[C@@H]1O [Example 47] | “++++” (<50 “++++”)
35 | Cc1cc(-c2cc(Cl)c(F)cc2F)ccc1[C@@H](O)[C@H]1O[C@H](CO)[C@@H](O)[C@H](O)[C@@H]1O [Example 48] | “+++” (50-200 “+++”)
36 | Cc1cc(-c2ccc(C(F)(F)F)c(F)c2F)ccc1[C@@H](O)[C@H]1O[C@H](CO)[C@@H](O)[C@H](O)[C@@H]1O [Example 49] | “+++” (50-200 “+++”)
37 | Cc1cc(Cl)c(-c2ccc([C@@H](O)[C@H]3O[C@H](CO)[C@@H](O)[C@H](O)[C@@H]3O)c(C)c2)cc1F [Example 50] | “+++” (50-200 “+++”)
38 | Cc1cc(-c2cc(F)cc(OC3CC3)c2)ccc1[C@@H](O)[C@H]1O[C@H](CO)[C@@H](O)[C@H](O)[C@@H]1O [Example 51] | “++++” (<50 “++++”)
39 | OC[C@H]1O[C@H]([C@H](O)c2c(F)cc(-c3cc(F)cc(F)c3)cc2Cl)[C@@H](O)[C@@H](O)[C@@H]1O [Example 52] | “+++” (50-200 “+++”)
